Measurements taken from ChEMBL document CHEMBL1201862, “PubChem BioAssay data set” (2004).
The source made the active and inactive calls.

Key:
[1] = target: Cytochrome P450 2C19 (Homo sapiens, UniProt P33261); assay: Cytochrome panel assay with activity outcomes. Panel member name: p450-cyp2c19 Compounds with AC50 equal or less than 10 uM are considered active; assay type: functional
[2] = target: T1, Heat shock factor protein 1 (Mus musculus, UniProt P38532); assay: decrease of HSF1-responsive luciferase luminescence – cell-based, NIH3T3, dose retest, confirmation (AID 2382); assay type: functional;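 also: NIH3T3 fibroblasts with HSF1-driven luciferase reporter stressed by proteasome inhibitor MG132; luminescence from HSF1-driven luciferase expression after 8 hours of MG132 stress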
T1 sequence (P38532 whole entry): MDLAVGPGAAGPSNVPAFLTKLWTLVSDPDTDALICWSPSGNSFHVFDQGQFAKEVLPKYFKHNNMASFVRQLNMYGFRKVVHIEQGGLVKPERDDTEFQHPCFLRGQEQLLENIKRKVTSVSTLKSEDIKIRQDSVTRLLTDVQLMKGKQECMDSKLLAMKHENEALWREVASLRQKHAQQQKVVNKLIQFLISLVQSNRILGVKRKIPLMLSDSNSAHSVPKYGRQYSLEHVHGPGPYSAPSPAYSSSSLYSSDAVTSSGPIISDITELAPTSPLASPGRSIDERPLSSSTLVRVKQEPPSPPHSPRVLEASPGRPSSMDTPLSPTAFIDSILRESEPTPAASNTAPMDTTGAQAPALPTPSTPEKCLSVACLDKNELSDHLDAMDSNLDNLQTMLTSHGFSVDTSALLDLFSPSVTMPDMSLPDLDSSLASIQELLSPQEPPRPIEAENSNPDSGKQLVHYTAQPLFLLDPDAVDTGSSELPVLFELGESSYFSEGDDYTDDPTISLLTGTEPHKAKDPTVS

[3] = target: T2, Protein RecA (Mycobacterium tuberculosis, UniProt P9WHJ3); assay: Fluorescence Cell-Free Homogeneous Dose Retest to Identify Inhibitors of RecA-Intein Splicing Activity. [Related pubchem assays (depositor defined):AID2097, AID2223, AID489010, AID492950]; assay type: functional
T2 sequence (P9WHJ3 whole entry): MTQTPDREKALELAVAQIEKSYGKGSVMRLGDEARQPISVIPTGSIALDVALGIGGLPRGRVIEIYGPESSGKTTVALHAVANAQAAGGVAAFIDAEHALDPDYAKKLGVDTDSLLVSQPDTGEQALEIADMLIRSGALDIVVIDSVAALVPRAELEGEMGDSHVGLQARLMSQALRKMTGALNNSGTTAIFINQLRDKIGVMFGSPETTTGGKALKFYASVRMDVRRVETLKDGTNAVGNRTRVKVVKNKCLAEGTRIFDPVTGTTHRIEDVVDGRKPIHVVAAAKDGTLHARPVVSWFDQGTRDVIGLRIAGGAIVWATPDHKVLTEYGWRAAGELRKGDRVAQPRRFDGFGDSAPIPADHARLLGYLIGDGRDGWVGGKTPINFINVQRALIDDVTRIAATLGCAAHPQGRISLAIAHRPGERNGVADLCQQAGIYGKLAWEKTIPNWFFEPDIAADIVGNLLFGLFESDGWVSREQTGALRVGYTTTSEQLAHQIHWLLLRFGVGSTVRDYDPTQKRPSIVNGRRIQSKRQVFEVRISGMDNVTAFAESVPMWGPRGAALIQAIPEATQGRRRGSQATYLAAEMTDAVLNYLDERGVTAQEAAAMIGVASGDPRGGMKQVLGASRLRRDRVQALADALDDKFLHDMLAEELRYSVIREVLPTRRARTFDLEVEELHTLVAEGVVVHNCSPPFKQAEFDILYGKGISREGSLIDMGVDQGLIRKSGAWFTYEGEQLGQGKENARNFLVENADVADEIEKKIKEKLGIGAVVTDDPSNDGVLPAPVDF

[4] = target: T3, Replicative DNA helicase DnaB (Mycobacterium tuberculosis, UniProt P9WMR3); assay: DnaB intein splicing inhibitors, dose response, biochemical, cell-free fluorescence (AID 449749); assay type: functional
T3 sequence (P9WMR3 whole entry): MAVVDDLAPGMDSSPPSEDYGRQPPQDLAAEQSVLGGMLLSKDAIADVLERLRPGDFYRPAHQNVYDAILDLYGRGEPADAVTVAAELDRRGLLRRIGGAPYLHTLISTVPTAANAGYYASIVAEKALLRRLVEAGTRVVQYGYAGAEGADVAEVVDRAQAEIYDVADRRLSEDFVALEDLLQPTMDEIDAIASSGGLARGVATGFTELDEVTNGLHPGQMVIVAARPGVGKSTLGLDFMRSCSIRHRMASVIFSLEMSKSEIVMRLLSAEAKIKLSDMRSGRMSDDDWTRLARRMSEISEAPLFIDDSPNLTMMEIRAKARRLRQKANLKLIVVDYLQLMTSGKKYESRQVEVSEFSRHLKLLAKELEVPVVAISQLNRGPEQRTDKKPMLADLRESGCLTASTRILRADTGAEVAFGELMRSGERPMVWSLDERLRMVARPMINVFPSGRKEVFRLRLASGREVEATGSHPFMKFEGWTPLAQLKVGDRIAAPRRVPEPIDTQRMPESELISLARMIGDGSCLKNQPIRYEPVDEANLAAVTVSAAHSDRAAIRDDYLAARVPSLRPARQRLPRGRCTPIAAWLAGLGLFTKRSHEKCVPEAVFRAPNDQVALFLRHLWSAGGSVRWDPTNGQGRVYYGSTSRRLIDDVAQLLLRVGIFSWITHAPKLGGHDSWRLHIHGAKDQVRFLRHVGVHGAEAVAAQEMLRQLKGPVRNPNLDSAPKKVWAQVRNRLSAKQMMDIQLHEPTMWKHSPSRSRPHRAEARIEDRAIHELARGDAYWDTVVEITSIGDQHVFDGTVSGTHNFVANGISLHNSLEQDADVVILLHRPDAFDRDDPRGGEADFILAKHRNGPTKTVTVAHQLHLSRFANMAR

[5] = target: FAD-linked sulfhydryl oxidase ALR (Homo sapiens, UniProt P55789); assay: ALR-catalysed DTT oxidation blockers – biochemical, H2O2 detection, luminescence, cherry-pick, dose response (AID 493248)
Sequence of FAD-linked sulfhydryl oxidase ALR (P55789 whole entry): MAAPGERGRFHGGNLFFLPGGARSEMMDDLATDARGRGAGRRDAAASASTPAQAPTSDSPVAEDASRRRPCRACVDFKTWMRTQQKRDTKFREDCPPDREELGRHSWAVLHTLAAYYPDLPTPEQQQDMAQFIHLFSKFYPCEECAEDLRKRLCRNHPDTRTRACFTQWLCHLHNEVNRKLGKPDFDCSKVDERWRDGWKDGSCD

[6] = NIH-3T3 fibroblast cytotoxicity, dose response, cytotoxicity control, cell-based, fluorescence, Alamar Blue, secondary assay (AID 2327); assay type: functional;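 also: NIH-3T3 mouse fibroblasts cultured with fluconazole at 8 µg/mL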
[7] = fluconazole-exposed Candida albicans growth modulators – fluorescence, retest, confirmation (AID 2467); assay type: functional, cell-based
[8] = target: T4, Rac GTPase-activating protein 1 (Homo sapiens, UniProt Q9H0H5); assay: blockers of MgcRacGAP-driven Rac1 GTP hydrolysis – biochemical, ADP Hunter fluorescence, primary and confirmatory, confirmation (AID 624330); assay type: functional
T4 sequence (Q9H0H5 whole entry): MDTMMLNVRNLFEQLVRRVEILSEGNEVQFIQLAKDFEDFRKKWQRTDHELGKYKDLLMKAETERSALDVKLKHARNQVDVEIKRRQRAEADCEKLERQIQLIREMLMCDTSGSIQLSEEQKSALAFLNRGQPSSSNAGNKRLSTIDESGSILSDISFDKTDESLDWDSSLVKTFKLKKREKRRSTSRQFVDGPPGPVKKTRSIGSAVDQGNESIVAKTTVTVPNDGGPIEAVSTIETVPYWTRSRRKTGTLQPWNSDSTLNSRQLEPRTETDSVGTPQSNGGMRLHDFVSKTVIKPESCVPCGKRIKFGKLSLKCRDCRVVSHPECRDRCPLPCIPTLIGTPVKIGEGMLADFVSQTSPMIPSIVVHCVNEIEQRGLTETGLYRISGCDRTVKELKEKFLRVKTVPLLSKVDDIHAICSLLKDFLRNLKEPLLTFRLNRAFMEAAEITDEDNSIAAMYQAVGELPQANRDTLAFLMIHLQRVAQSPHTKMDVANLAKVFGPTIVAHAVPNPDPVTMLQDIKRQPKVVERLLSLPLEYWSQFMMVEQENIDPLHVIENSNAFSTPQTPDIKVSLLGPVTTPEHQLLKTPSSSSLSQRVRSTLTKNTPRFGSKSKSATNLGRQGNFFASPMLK

[9] = target: Cytochrome P450 2C9 (Homo sapiens, UniProt P11712)
Sequence of Cytochrome P450 2C9 (P11712 whole entry): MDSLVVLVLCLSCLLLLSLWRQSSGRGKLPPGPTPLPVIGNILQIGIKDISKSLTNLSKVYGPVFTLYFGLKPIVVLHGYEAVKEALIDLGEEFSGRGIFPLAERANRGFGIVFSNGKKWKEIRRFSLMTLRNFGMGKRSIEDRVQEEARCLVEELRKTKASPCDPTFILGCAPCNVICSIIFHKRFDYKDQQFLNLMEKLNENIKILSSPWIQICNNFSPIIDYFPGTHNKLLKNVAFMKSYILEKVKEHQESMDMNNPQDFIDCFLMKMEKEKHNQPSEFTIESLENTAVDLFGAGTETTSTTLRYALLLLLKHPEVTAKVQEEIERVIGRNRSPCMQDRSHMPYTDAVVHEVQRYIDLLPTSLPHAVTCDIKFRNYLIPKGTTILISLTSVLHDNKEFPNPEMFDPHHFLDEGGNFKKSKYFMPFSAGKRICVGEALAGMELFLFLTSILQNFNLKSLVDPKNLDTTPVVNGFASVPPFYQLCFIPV

[10] = reduction of Shn3 3'UTR-driven luciferase in osteoblasts – cell-based, Clone20 osteoblasts, firefly luciferase, cherry-picked, dose response (AID 624132); assay type: functional;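 also: firefly luciferase luminescence from reporter carrying the Shn3 3'UTR in osteoblasts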

Sequence of Cytochrome P450 2C19 (P33261 whole entry): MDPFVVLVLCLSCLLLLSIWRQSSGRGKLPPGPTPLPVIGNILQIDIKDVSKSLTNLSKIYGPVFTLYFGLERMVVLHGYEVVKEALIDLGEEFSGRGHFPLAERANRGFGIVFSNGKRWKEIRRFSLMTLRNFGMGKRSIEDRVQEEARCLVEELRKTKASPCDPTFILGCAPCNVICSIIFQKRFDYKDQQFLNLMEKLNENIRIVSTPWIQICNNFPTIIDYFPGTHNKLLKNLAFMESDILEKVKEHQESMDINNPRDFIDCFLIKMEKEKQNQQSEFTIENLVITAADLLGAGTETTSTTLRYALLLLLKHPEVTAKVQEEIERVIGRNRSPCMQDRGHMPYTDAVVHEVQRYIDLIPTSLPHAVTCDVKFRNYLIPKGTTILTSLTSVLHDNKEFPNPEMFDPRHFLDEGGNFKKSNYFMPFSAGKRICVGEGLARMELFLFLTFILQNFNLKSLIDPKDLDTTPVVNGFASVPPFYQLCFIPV

## Cc1cc(=O)oc(C)c1C(=O)NCc1ccccc1
[1]; read-out: AC50
  AC50: 39.8 µM (inconclusive)

## Cc1ccc(NC(=O)CCN2C(=O)C3CCCCC3C2=O)cc1[N+](=O)[O-] (stereo not given)
[2]
  EC50: > 195 µM (not active)

## COc1nc(NC(C)C)nc(N(C#N)CN2C(=O)c3ccccc3S2(=O)=O)n1
[3]
  EC50: 26.4 µM (inconclusive)
[4]
  AC50: 24.4 µM (active)

## Cc1ccc(S(=O)(=O)c2ccc(Oc3ccccc3)cc2)cc1
[2]
  EC50: 21.5 µM (active)

## N=C(NC(=O)c1ccc(Cl)cc1)Nc1nc2ccccc2o1
[2]
  EC50: > 195 µM (not active)

## CCS(=O)(=O)c1nc(S(=O)(=O)c2ccc(C)cc2)c(N2CCC(C)CC2)s1
[2]
  EC50: > 195 µM (not active)

## O=C(CNC1=NCCC1)c1ccc(Cl)cc1
[3]
  EC50: 23.1 µM (active)
[4]
  AC50: 127 µM (active)

## O=C(CN1CCN(c2ccccc2O)CC1)Nc1cccnc1Cl
[5]
  AC50: 2.17 µM (active)

## Cc1ccc(NNC(=O)c2ccno2)cc1C
[5]
  AC50: 0.439 µM (active)
[6]
  EC50: > 160 µM (inactive)
[7]
  EC50: 0.763 µM (active)

## CN(CC(=O)Nc1ccccc1Br)C(=O)c1cccn1C
[2]
  EC50: > 195 µM (not active)

## CC(=O)Nc1ccc(S(=O)(=O)NC(C)C(=O)NCCc2ccc(F)cc2)cc1 (stereo not given)
[5]
  AC50: 0.031 µM (active)

## CC(=O)N1CC[n+]2c(-c3ccc(Cl)cc3)csc21
[5]
  AC50: 1.88 µM (active)

## CN(C)NC(=O)c1ccsc1NC(=O)c1ccc(S(=O)(=O)N2CCCC2)cc1
[5]
  AC50: 0.835 µM (active)

## C/C(=C\c1ccc(N)cc1)c1nc2ccccc2[nH]1
[5]
  AC50: 0.321 µM (active)

## O=C(NN=Cc1ccc(O)cc1)c1cc[n+](Cc2ccccc2)cc1
[5]
  AC50: 2.05 µM (active)
[8]
  IC50: 137 µM (active)

## COc1cccc(NC(=S)N(CCC(C)C)C2CCN(C(C)=O)CC2)c1
[2]
  EC50: > 195 µM (not active)

## COc1ccccc1/C=C/C1(C(=O)NC2CCCC2)CC(=O)N1c1ccc(C)cc1 (stereo not given)
[3]
  EC50: 8.52 µM (active)
[4]
  AC50: 9.29 µM (active)

## COc1ccc2nc(O)c(CN(Cc3cccs3)S(=O)(=O)c3c(C)ccc4nsnc34)cc2c1
[2]
  EC50: 0.503 µM (active)

## CCS(=O)(=O)N1CCC(C(=O)NCc2cccnc2)CC1
[1]; read-out: AC50
  AC50: 22.4 µM (inconclusive)
[9]
  AC50: 11.2 µM (inconclusive)

## Cc1cc(N=Nc2ccc(Cl)cc2)cc(CN2CCCC2)c1O
[2]
  EC50: > 195 µM (not active)

## CC(=O)c1cccc(NC(=O)CSc2ncc(C(=O)Nc3ccccc3)c(=O)n2C)c1
[3]
  EC50: 1.21 µM (active)
[4]
  AC50: > 380 µM (inconclusive)

## CCOC(=O)N1CCN(C(=O)CSCc2ccc(Cl)cc2)CC1
[1]; read-out: AC50
  AC50: 17.8 µM (inconclusive)

## O=C(Cc1ccccc1F)Nc1nc2ccccc2[nH]1
[3]
  EC50: > 380 µM (inconclusive)
[4]
  AC50: 0.0489 µM (inconclusive)

## CCOC(=O)C(C)c1ccc2cc(OC)ccc2c1 (stereo not given)
[2]
  EC50: > 195 µM (not active)

## CC(C)NS(=O)(=O)c1ccc(OCC(=O)N2CCCC2)c(Cl)c1
[2]
  EC50: > 195 µM (not active)

## CN(C)c1ccc(NC(=O)CN2CCc3ccccc3C2)cc1
[5]
  AC50: 2.23 µM (active)

## Fc1ccc(Sc2nc(-c3ccccc3)nnc2C(F)(F)F)cc1
[3]
  EC50: 0.66 µM (active)
[4]
  AC50: 1.45 µM (active)

## COc1ccc(C(=O)Nc2ccncc2)cc1[N+](=O)[O-]
[3]
  EC50: > 380 µM (inactive)
[4]
  AC50: > 380 µM (inactive)

## O=C(c1ccc2c(c1)OCO2)N1CCC2(CC1)OCCO2
[2]
  EC50: > 195 µM (not active)

## CCSc1nnc(NC(=O)c2cccc(S(=O)(=O)N(C)c3ccccc3)c2)s1
[5]
  AC50: 2.75 µM (active)

## CC(NS(C)(=O)=O)C(c1cccs1)N1CCN(c2ccccc2)CC1 (stereo not given)
[5]
  AC50: 2.93 µM (active)

## Cc1ccc(C(c2c(C)n[nH]c2O)c2c(C)n[nH]c2O)cc1[N+](=O)[O-]
[3]
  EC50: 0.195 µM (active)
[4]
  AC50: 0.442 µM (active)

## O=C1CCc2cccc(O)c2N1
[10]
  AC50: 12.2 µM (active)

## CCc1n[nH]c2c1C(c1ccsc1)C(C#N)=C(N)O2 (stereo not given)
[3]
  EC50: 9.87 µM (active)
[4]
  AC50: 14.5 µM (active)

## CCC(=O)Oc1oc(-c2ccccc2)nc1/C=N/c1ccccc1OC
[2]
  EC50: 10.3 µM (active)

## Cn1ccnc1 [1-METHYLIMIDAZOLE]
[1]
  AC50: inconclusive

## O=C(O)c1c2ccccc2cc2ccccc12 [ANTHRACENE-9-CARBOXYLIC ACID]
[1]; read-out: AC50
  AC50: 25.1 µM (inconclusive)
